Measured values taken from article PMC5746060, “General and Modular Strategy for Designing Potent, Selective, and Pharmacologically Compliant Inhibitors of Rhomboid Proteases” (Cell Chemical Biology, 2017).
Starred links: 1 amine or outer side, 2 acyl side, 3 side chain; linkers in the order of their positions; H or OH if unused. Non-standard residues stand in square brackets, D forms with d. Residues, ends and D or L forms follow the SMILES beside them. *: point of attachment. NH(4-phenylbutyl) = c1ccc(CCCCN*)cc1; X1 = C[C@H](N[*:1])C(=O)C(=O)[*:2]; NHPhenethyl = c1ccc(CCN*)cc1

Columns and labels:
endogenous GlpG = biological target: T1, endogenous GlpG (Escherichia coli, UniProt P09391); assay: inhibition of endogenous GlpG in live E. coli (LacYTM2 substrate cleavage, western blot); format: cell-based; conditions: live E. coli NR698, substrate MBP-FLAG-LacYTM2-Trx; read-out: IC50 In Vivo (GlpG)
T1 construct: E. coli expressing endogenous levels of GlpG; endogenous in cells; host or cells: E. coli K12 NR698 (permeabilised outer membrane)
Experimental: The substrate MBP-FLAG-LacYTM2-Trx ([Strisovsky et al., 2009]) was expressed in wild-type E. coli NR698 with genetically permeabilized outer membrane ([Ruiz et al., 2005]) in the presence of increasing concentrations of inhibitors as described in STAR Methods. Substrate cleavage was measured in cell lysates by immunoblotting for FLAG and quantified using near-infrared fluorescence. The reported in vivo IC50 values are best-fit means with SD representative of 2–3 measurements. DMSO, dimethylsulfoxide vehicle control; KO, E. coli glpG::tet. […] The substrate AmyESP-MBP-FLAG-LacYTM2-Trx-HA was expressed in Bacillus subtilis 168 (ydcA::neo, xdkE::AmyESP-MBP-LacYTM2-Trx(erm, lin)) (BS87) in the presence of increasing concentrations of inhibitors as described in STAR Methods. Substrate cleavage was detected in cell lysates by immunoblotting for FLAG and detection by near-infrared fluorescence. […] This treatment was necessary because the specific cleavage product could not be resolved sufficiently well from the non-specific bands to be integrated separately. DMSO, dimethylsulfoxide vehicle control; YqgP KO, Bacillus subtilis 168 (ydcA::neo, yqgP::tet, xdkE::AmyESP-MBP-LacYTM2-Trx(erm, lin)) (BS88).

AarA = biological target: T2, AarA (Providencia stuartii, UniProt P46116); assay: activity-based probe competition assay, rhomboid panel; format: biochemical; conditions: 50 μM and 0.5 μM; outcompeted the ABP even at 500 nM
T2 construct: made in house
T2 sequence (P46116 1-281): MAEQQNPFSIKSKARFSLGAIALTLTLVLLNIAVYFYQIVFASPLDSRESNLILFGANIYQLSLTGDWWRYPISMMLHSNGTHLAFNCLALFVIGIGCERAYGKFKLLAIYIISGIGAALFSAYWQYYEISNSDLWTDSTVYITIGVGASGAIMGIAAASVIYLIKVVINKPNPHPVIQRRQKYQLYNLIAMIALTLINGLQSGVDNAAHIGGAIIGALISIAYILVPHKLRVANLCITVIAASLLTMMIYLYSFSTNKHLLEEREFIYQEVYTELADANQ
Text: (§1) Any enzyme inhibitors to be used as specific tools for cell biology or as starting points for drug development must show sufficient level of selectivity toward their intended target. This is particularly important for compounds that react with the catalytic nucleophile common to many serine hydrolases. […] To map the selectivity of peptidyl ketoamides more objectively and widely, we employed activity-based probe (ABP) competition assays that enable a more general and substrate-independent measurement of inhibitory potency, because they rely solely on the competition between a fluorescently labeled activity-based probe and the tested inhibitor ([Nguyen et al., 2015], [Serim et al., 2012]). The assays we employed used fluorophosphonate ABPs that target the catalytic serine of a wide-range of serine hydrolases ([Bachovchin et al., 2014]), including rhomboids ([Xue et al., 2012]), and are thus very practical general detection reagents even for serine hydrolases for which sensitive substrates might not be available.
(§2) Figure 5 Selectivity of Peptidyl Ketoamides (A) Selectivity of compounds 9, 10, and 11 for nine rhomboid proteases was profiled using activity-based probe competition assay at 50 μM and 0.5 μM concentration. The upper limit of enzyme concentration was 0.4 μM. (B) Selectivity of compounds 9, 10, and 11 against human serine hydrolases was analyzed using EnPlex as described ([Bachovchin et al., 2014]).
(§3) For inhibitor selectivity profiling against rhomboid proteases ([Wolf et al., 2015]), 400 ng of a purified protein preparation of E. coli GlpG was diluted in 30 μL of reaction buffer (20 mM HEPES, pH 7.4, with 0.05% (w/v) DDM). For other rhomboids, amounts were taken that gave similar labeling intensity during profiling. Rhomboids were incubated for 30 min at room temperature with the indicated concentration of compound, 100 μM DCI as positive control, or an equal volume of DMSO as negative control. Next, TAMRA-FP serine hydrolase probe (Thermo Fisher #88318) was added to a final concentration of 1 ìM and incubated for 2 h at 37°C in the dark. The reaction was stopped by addition of 4× Laemmli buffer and the reaction mixture was resolved on 15% SDS-PAGE. Gels were scanned on a Typhoon Trio+ and analyzed using ImageJ. The intensity of each rhomboid protease band calculated by ImageJ was normalized against its corresponding DMSO-treated counterpart (100% activity) to indicate the residual activity left after inhibition. The remaining activity was used to calculate the percentage of inhibition depicted in the heatmap. Selectivity profiles against human serine hydrolases were determined by EnPlex as described previously ([Bachovchin et al., 2014]).

DmRho1 = biological target: T3, DmRho1 (Drosophila melanogaster, UniProt P20350); assay: as above; format: biochemical; conditions: 50 μM and 0.5 μM
T3 construct: made in house
T3 sequence (P20350 1-355): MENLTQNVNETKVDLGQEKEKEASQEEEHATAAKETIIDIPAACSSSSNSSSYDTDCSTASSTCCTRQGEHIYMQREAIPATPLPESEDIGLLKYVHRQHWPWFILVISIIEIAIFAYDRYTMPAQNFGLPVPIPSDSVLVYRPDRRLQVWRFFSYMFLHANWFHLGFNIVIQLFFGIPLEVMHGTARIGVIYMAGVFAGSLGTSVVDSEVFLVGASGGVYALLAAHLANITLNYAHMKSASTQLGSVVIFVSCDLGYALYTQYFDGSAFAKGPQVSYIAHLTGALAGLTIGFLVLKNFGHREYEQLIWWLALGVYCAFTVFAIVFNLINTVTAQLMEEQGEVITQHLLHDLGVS
Text: as §1, §2, §3

MmRHBDL3 = biological target: T4, MmRHBDL3 (Mus musculus, UniProt P58873); assay: as above; format: biochemical; conditions: 50 μM and 0.5 μM
T4 construct: made in house
T4 sequence (P58873 1-404): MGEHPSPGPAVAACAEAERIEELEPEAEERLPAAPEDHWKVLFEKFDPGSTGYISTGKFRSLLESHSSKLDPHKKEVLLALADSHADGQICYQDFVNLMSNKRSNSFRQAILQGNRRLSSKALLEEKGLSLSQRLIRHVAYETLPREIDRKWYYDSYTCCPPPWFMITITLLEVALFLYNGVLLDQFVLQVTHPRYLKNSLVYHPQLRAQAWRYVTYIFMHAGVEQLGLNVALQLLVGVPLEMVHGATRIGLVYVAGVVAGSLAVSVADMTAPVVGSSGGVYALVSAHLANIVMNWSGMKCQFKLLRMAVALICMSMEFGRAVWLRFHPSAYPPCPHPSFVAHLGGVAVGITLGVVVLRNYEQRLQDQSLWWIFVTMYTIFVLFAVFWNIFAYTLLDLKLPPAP
Text: as §1, §2, §3

HiGlpG = biological target: T5, HiGlpG (Haemophilus influenzae, UniProt P44783); assay: as above; format: biochemical; conditions: 50 μM and 0.5 μM; outcompeted the ABP even at 500 nM
T5 construct: made in house
Text: as §1, §2, §3

T5 sequence (P44783 whole entry): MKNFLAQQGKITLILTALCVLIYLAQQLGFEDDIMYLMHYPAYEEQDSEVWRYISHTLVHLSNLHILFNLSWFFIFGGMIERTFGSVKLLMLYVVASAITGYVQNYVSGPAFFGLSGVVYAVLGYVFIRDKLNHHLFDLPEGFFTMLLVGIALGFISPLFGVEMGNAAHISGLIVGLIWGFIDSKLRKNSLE
T1 sequence (P09391 whole entry): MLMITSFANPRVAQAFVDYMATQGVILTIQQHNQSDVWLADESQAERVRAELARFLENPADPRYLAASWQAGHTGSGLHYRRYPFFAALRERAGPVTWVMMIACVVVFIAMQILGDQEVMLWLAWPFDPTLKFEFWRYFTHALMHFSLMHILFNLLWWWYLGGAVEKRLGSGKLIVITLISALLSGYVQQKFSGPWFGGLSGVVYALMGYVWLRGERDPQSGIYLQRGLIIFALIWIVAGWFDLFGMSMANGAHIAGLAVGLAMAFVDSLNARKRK

Row | SMILES | IC50 (endogenous GlpG) | competition with ABP labeling of AarA (AarA) | competition with ABP labeling of DmRho1 (DmRho1) | competition with ABP labeling of MmRHBDL3 (MmRHBDL3) | competition with ABP labeling of HiGlpG (HiGlpG)
1 | CC(=O)N[C@@H](CCCNC(=N)N)C(=O)N[C@H](C(=O)N[C@@H](CCCNC(=N)N)C(=O)N[C@@H](Cc1c[nH]cn1)C(=O)N[C@@H](C)C(=O)C(=O)NCCc1ccccc1)C(C)C [compound 9, Ac-RVRHA-CONH-phenylethyl] (Ac-RVRH[X1]-NHPhenethyl) | 8.8 ± 0.4 nM | potently competed | none of these compounds were able to compete | none of these compounds were able to compete | potently competed
2 | CC(=O)N[C@@H](CCCNC(=N)N)C(=O)N[C@H](C(=O)N[C@@H](CCCNC(=N)N)C(=O)N[C@@H](Cc1c[nH]cn1)C(=O)N[C@@H](C)C(=O)C(=O)NCCCCc1ccccc1)C(C)C [compound 11, Ac-RVRHA-CONH-phenylbutyl] (Ac-RVRH[X1]-{NH(4-phenylbutyl)}) | 2.7 ± 0.1 nM | potently competed | none of these compounds were able to compete | none of these compounds were able to compete | potently competed
